Data published in patent publication US20250042862A1, “AROMATIC HETEROCYCLIC COMPOUND AND APPLICATION THEREOF” (Shanghai Institute of Materia Medica, Chinese Academy of …, priority 2021, published 2025).

biological target: human recombinant LSD1 protein (Homo sapiens (Human), UniProt O60341); experiment: In vitro enzyme inhibition activity assay - LSD1 (Lance Ultra TR-FRET); type: biochemical; conditions: all compounds tested in the form of hydrochloride
Description: The purpose of this experiment was to test the in vitro inhibitory activity of the compounds against LSD1. The human recombinant LSD1 protein used in the experiment was purchased from Active Motif, and the enzyme level activity testing assay of LSD1 was performed using the Lance Ultra LSD1 Histone H3 Lysine 4 Demethylase Assay Kit (PerkinElmer). Tris-buffer (50 mMTris-HCl, 50 mMNaCl, 0.01% Tween-20, 1 mM DTT, 10 μM FAD, 10% glycerol, pH 9.0) was first prepared, and after preparation, the LSD1 fractions required for test were placed in this buffer and incubated for one hour at room temperature; the fractions included 4 μL of substrate solution ([…] Bio-H3K4me2, 1-24aa), 4 μL of enzyme solution (4 nM LSD1), and 2 μL of inhibitor in a 384-well microplate. After these operations, another 5 μL of assay mixture containing Eu-labeled H3K4me0 antibody and ULight-Streptavidin anti-biotin protein was added to the system, after which the fluorescence intensity of the components to be tested was detected by using Envision (PerkinElmer) in TR-FRET mode (excitation wavelength of 320 nm, emission wavelength of 620 nm). The test was repeated a total of three times to minimize errors. The final IC50 data were calculated by the software GraphPad Prism 5, and finally the sigmoidal dose-response (variable slope) method was used to obtain the fitted curve.
The LSD1 inhibitory activities of representative compounds of the present application as well as the positive control compound CC90011 were provided in Table 2. All compounds were tested in the form of hydrochloride.

`Cn1ncc2cc(-c3ccc4nc(N5CCC(N)CC5)nc(-c5ccc(C#N)c(F)c5)c4c3)ccc21` [Compound 9, 4-(2-(4-aminopiperidin-1-yl)-6-(1-methyl-1H-indazol-5-yl)quinazolin-4-yl)-2-fluorobenzonitrile] and `N#Cc1ccc(-c2nc(N3CCC(N)CC3)nc3ccc(-c4c(F)cccc4Cl)cc23)cc1F` [Compound 22, 4-(2-(4-Aminopiperidin-1-yl)-6-(2-chloro-6-fluorophenyl)quinazolin-4-yl)-2-fluorobenzonitrile] cannot be ordered by IC50: 30 to 300 nM for the first, at most 30 nM for the second.

`N#Cc1ccc(-c2nc(NC[C@H]3CCNC3)nc3ccc(-c4cccc(F)c4C(F)(F)F)cc23)cc1F` [Compound 57, (S)-4-(6-(3-fluoro-2-(trifluoromethylphenyl)-2-(pyrrolidin-3-ylmethyl)amino)quinazolin-4-yl)-2-fluorobenzonitrile] and `N#Cc1ccc(-c2nc(NC[C@H]3CCNC3)nc3ccc(-c4c(Cl)cccc4Cl)cc23)cc1F` [Compound 51, (S)-4-(6-(2,6-dichlorophenyl)-2-((pyrrolidin-3-ylmethyl)amino)quinazolin-4-yl)-2-fluorobenzonitrile] cannot be ordered by IC50: at most 30 nM for the first, at most 30 nM for the second.

`Cc1cscc1-c1ccc2nc(NC[C@H]3CCNC3)nc(-c3ccc(C#N)c(F)c3)c2c1` [Compound 44, (S)-2-fluoro-4-(6-(4-methylthiophen-3-yl)-2-((pyrrolidin-3-ylmethyl)amino)quinazolin-4-yl)benzonitrile] and `COc1ccc(-c2ccc3nc(NCC4CCNC4)nc(-c4ccc(C#N)c(F)c4)c3c2)cc1F` (stereo not shown) [Compound 29, 2-Fluoro-4-(6-(3-fluoro-4-methoxyphenyl)-2-((pyrrolidin-3-ylmethyl)amino)quinazolin-4-yl)benzonitrile] fall in the same range of IC50: 30 to 300 nM for the first, 30 to 300 nM for the second.

`N#Cc1ccc(-c2nc(N3CCC(N)CC3)cc3ccc(-c4c(F)cccc4C(F)(F)F)cc23)cc1F` [Compound 98, 4-(3-(4-Aminopiperidin-1-yl)-7-(2-fluoro-6-(trifluoromethyl)phenyl)isoquinolin-1-yl)-2-fluorobenzonitrile] and `N#Cc1ccc(-c2nc(N3CCC[C@H](N)CC3)nc3ccc(-c4c(F)cccc4C(F)(F)F)cc23)cc1F` [Compound 88, (S)-4-(2-(4-aminoazepan-1-yl)-6-(2-fluoro-6-(trifluoromethyl)phenyl)quinazolin-4-yl)-2-fluorobenzonitrile] cannot be ordered by IC50: at most 30 nM for the first, at most 30 nM for the second.

`COc1ccc(-c2ccc3nc(N4CCC(N)CC4)nc(-c4ccc(C#N)nc4)c3c2)cc1F` [Compound 24, 5-(2-(4-aminopiperidin-1-yl)-6-(3-fluoro-4-methoxyphenyl)quinazolin-4-yl)pyridinecarbonitrile] and `N#Cc1ccc(-c2nc(N3CCC(N)CC3)nc3ccc(-c4cccc(F)c4F)cc23)cc1F` [Compound 17, 4-(2-(4-aminopiperidin-1-yl)-6-(2,3-difluorophenyl)quinazolin-4-yl)-2-fluorobenzonitrile] fall in the same range of IC50: 30 to 300 nM for the first, 30 to 300 nM for the second.

`C[C@@H]1CN(c2nc(-c3ccc(C#N)c(F)c3)c3cc(-c4c(F)cccc4C(F)(F)F)ccc3n2)CC[C@H]1N` [Compound 68, 4-(2-((3R,4R)-4-amino-3-methylpiperidin-1-yl)-6-(2-fluoro-6-(trifluoromethyl)phenyl)quinazolin-4-yl)-2-fluorobenzonitrile] and `N#Cc1ccc(-c2nc(N3CC[C@H](N)C3)nc3ccc(-c4c(F)cccc4C(F)(F)F)cc23)cc1F` [Compound 90, (S)-4-(2-(3-aminopyrrolidin-1-yl)-6-(2-fluoro-6-(trifluoromethyl)phenyl)quinazolin-4-yl)-2-fluorobenzonitrile] cannot be ordered by IC50: at most 30 nM for the first, at most 30 nM for the second.

In the case of `N#Cc1ccc(-c2nc(N3CCCC[C@H](N)C3)nc3ccc(-c4c(F)cccc4C(F)(F)F)cc23)cc1F` [Compound 86, (S)-4-(2-(3-aminoazepan-1-yl)-6-(2-fluoro-6-(trifluoromethyl)phenyl)quinazolin-4-yl)-2-fluorobenzonitrile], the IC50 is reported as at most 30 nM.
